# According to US8486933B2, “Pyrimidine inhibitors of kinase activity” (AbbVie Inc., priority 2009, dated 2013):
# Biological target: T1, human IGF-1R (Homo sapiens, UniProt P08069)
# T1 construct: human IGF-1R, amino acids 954-1367 expressed by baculovirus in Sf21 cells; GST (C); purchased Cell Signaling Technology; host or cells: baculovirus in Sf21 cells
# Assay: IGF-1R homogenous time-resolved fluorescence (HTRF) in vitro kinase assay
# Assay type: biochemical
# Conditions: recombinant GST-tagged human IGF-1R aa 954-1367; ATP 50 μM; 60 minutes at room temperature
# Description: IGF-1R kinase activity was assayed by a homogenous time-resolved fluorescence (HTRF) in vitro kinase assay (Mathis, G., HTRF(R) Technology. J Biomol Screen, 1999. 4(6): p. 309-314). Specifically, 10 μL C-terminal GST-tagged, recombinant, human IGF-1R, amino acids 954-1367 expressed by baculovirus in Sf21 cells (Cell Singaling Technology) was mixed with 10 μL inhibitor (various concentrations, 2% final DMSO) and 10 μL of ATP (50 μM final concentration) in reaction buffer (50 mM HEPES, pH 7.5, 10 mM MgCl2, 2 mM MnCl2, 0.1% BSA and 1 mM DTT, 40 μL final volume). The reaction was initiated by addition of 10 μL of biotinylated peptide substrate (Biotin-Ahx-[…], 0.5 μM final concentration) in a black 384-well plate (Packard). […] The quenched reaction was allowed to stand at room temperature for 1 hour and then read in a time-resolved fluorescence detector (Envision, Perkin Elmer) at 615 nm and 665 nm simultaneously. The ratio between the signal of 615 nm and 665 nm was used in the calculation of the IC50.
# T1 sequence (P08069 954-1367): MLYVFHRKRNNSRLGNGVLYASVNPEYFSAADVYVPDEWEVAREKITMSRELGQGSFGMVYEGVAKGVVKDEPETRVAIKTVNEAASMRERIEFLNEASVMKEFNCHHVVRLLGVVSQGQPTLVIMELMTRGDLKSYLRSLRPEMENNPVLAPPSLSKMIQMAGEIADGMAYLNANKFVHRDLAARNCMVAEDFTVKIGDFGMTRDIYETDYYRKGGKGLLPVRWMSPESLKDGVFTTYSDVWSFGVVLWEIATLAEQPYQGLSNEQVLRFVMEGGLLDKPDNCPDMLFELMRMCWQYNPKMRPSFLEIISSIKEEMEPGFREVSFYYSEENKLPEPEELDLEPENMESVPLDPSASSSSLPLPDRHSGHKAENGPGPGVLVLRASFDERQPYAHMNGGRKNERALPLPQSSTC
row,Structure (SMILES),IC50 [µM]
1,"CCN1CCN(c2ccc(Nc3ncc(Br)c(Nc4ccc5ncn(Cc6ccccc6)c5c4)n3)cc2)CC1 [Example 5, N^4-(1-benzyl-1H-benzimidazol-6-yl)-5-bromo-N^2-[4-(4-ethylpiperazin-1-yl)phenyl]pyrimidine-2,4-diamine]",> 0.5
2,"COc1cc(N2CCC(N3CCN(C)CC3)CC2)ccc1Nc1ncc(Br)c(Nc2ccc3ccc(-c4ccccc4)nc3c2)n1 [Example 48, 5-bromo-N^2-{2-methoxy-4-[4-(4-methylpiperazin-1-yl)piperidin-1-yl]phenyl}-N^4-(2-phenylquinolin-7-yl)pyrimidine-2,4-diamine]",> 0.5
3,"COc1cc(N2CCC(N(C)C)CC2)ccc1Nc1ncc(Br)c(Nc2cc3cnn(C)c3cc2S(=O)(=O)C(C)C)n1 [Example 27, 5-bromo-N^2-{4-[4-(dimethylamino)piperidin-1-yl]-2-methoxyphenyl}-N^4-[6-(isopropylsulfonyl)-1-methyl-1H-indazol-5-yl]pyrimidine-2,4-diamine]",< 0.01
4,"CNC(=O)c1cc2c(cnn2C)cc1Nc1nc(Nc2ccc(N3CCN(C(C)C)CC3)cc2OC)ncc1Br [Example 44, 5-[(5-bromo-2-{[4-(4-isopropylpiperazin-1-yl)-2-methoxyphenyl]amino}pyrimidin-4-yl)amino]-N,1-dimethyl-1H-indazole-6-carboxamide]",0.01 to 0.05
5,"CN(C)C1CCN(c2ccc(Nc3ncc(Br)c(Nc4cc5cnn(C)c5cc4S(C)(=O)=O)n3)cc2)CC1 [Example 37, 5-bromo-N^2-{4-[4-(dimethylamino)piperidin-1-yl]phenyl}-N^4-[1-methyl-6-(methylsulfonyl)-1H-indazol-5-yl]pyrimidine-2,4-diamine]",0.01 to 0.05
6,"COc1cc(N2CCC(N(C)C)CC2)ccc1Nc1ncc(Br)c(Nc2ccc3c(cnn3C)c2)n1 [Example 19, 5-bromo-N^2-{4-[4-(dimethylamino)piperidin-1-yl]-2-methoxyphenyl}-N^4-(1-methyl-1H-indazol-5-yl)pyrimidine-2,4-diamine]",0.051 to 0.1

# The next lines start with the values.
row,IC50 [µM],Structure (SMILES)
1,0.01 to 0.05,"COc1cc(N2CCC(N(C)C)CC2)ccc1Nc1ncc(Br)c(Nc2cc3cn[nH]c3cc2Cl)n1 [Example 20, 5-bromo-N^4-(6-chloro-1H-indazol-5-yl)-N^2-{4-[4-(dimethylamino)piperidin-1-yl]-2-methoxyphenyl}pyrimidine-2,4-diamine]"
2,> 0.5,"COc1cc(N2CCC(N(C)C)CC2)ccc1Nc1ncc(Cl)c(Nc2cccc3[nH]c(C)nc23)n1 [Example 17, 5-chloro-N^2-{4-[4-(dimethylamino)piperidin-1-yl]-2-methoxyphenyl}-N^4-(2-methyl-1H-benzimidazol-4-yl)pyrimidine-2,4-diamine]"
3,< 0.01,"CCS(=O)(=O)c1cc2[nH]ncc2cc1Nc1nc(Nc2ccc(N3CCC(N(C)C)CC3)cc2OC)ncc1Br [Example 30, 5-bromo-N^2-{4-[4-(dimethylamino)piperidin-1-yl]-2-methoxyphenyl}-N^4-[6-(ethylsulfonyl)-1H-indazol-5-yl]pyrimidine-2,4-diamine]"
4,> 0.5,"CCN1CCN(c2ccc(Nc3ncc(Br)c(Nc4ccc5[nH]c(C(F)(F)F)nc5c4)n3)cc2)CC1 [Example 1, 5-bromo-N^2-[4-(4-ethylpiperazin-1-yl)phenyl]-N^4-[2-(trifluoromethyl)-1H-benzimidazol-5-yl]pyrimidine-2,4-diamine]"
5,0.051 to 0.1,"CCN1CCN(c2ccc(Nc3ncc(Br)c(Nc4ccc5[nH]ncc5c4)n3)cc2)CC1 [Example 7, 5-bromo-N^2-[4-(4-ethylpiperazin-1-yl)phenyl]-N^4-1H-indazol-5-ylpyrimidine-2,4-diamine]"
6,0.101 to 0.5,"COc1cc(N2CCC(N(C)C)CC2)ccc1Nc1ncc(Cl)c(Nc2ccc3c(cnn3C)c2)n1 [Example 18, 5-chloro-N^2-{4-[4-(dimethylamino)piperidin-1-yl]-2-methoxyphenyl}-N^4-(1-methyl-1H-indazol-5-yl)pyrimidine-2,4-diamine]"
